The first data set relates to HepG2. Nature of the data set: Inhibition of human recombinant BMP6-stimulated hepcidin mRNA expression in human HepG2 cells after 6 hrs by qRT-PCR analysis. Type of data set: functional, cell-based. Particulars: HepG2, 6 h.
`COC(=O)Nc1noc2cc(-c3c(-c4cccc(C)n4)n[nH]c3C)ccc12`: the concentration for half-maximal inhibition (IC50) is 0.042 µM.

For `COC(=O)Nc1noc2cc(-c3c(-c4cccc(OC)n4)n[nH]c3C)ccc12`, the IC50 is 0.4 µM.

As for `CCNC(=O)Nc1noc2cc(-c3c(C4CC4)n[nH]c3C)ccc12`, the IC50 came to 0.72 µM.

Turning to `COC(=O)Nc1noc2cc(-c3c(C(C)(C)C)n[nH]c3C)ccc12`, the IC50 was more than 10 µM.

Turning to `COCCOC(=O)Nc1noc2cc(-c3c(-c4ccccn4)n[nH]c3C)ccc12`, the IC50 stood at 0.069 µM.

Consider `COC(=O)Nc1noc2cc(-c3c(-c4ccccc4)n[nH]c3C)ccc12`, for which the IC50 amounted to 0.54 µM.

In the case of `O=C(Nc1n[nH]c2cc(-c3ccc(O)cc3)ccc12)C1CC1`, the half-inhibitory concentration (IC50) is 0.4 µM.

With `COC(=O)Nc1noc2cc(-c3c(C4CC4)n[nH]c3C)ccc12`, the IC50 amounted to 0.21 µM.

With `Cc1[nH]nc(C2CC2)c1-c1ccc2c(NC(=O)C3CC3)n[nH]c2c1`, the concentration for half-maximal inhibition (IC50) was found to be 0.082 µM.

With `O=C(Nc1n[nH]c2cc(-c3cnc4[nH]ccc4c3)ccc12)C1CC1`, the IC50 turned out to be 11 µM.

For the molecule `Cc1[nH]nc(-c2ccccn2)c1-c1ccc2c(NC(=O)OC(C)C)noc2c1`, the IC50 was 0.16 µM.

Regarding `COC(=O)Nc1noc2cc(-c3c(-c4cccnn4)n[nH]c3C)ccc12`, the IC50 amounted to 0.35 µM.

With `CCc1n[nH]c(C)c1-c1ccc2c(NC(=O)OC)noc2c1`, the IC50 is 0.46 µM.

With `O=C(Nc1n[nH]c2cc(-c3cc[nH]c3)ccc12)C1CC1`, the 50% inhibitory concentration (IC50) was more than 30 µM.

As to `COC(=O)Nc1noc2cc(-c3c(-c4cnccn4)n[nH]c3C)ccc12`, the IC50 worked out at 0.21 µM.

Turning to `COC(=O)Nc1noc2cc(-c3c(-c4ccncn4)n[nH]c3C)ccc12`, the IC50 stood at 2.9 µM.

Turning to `COC(=O)Nc1noc2cc(-c3c(C)n[nH]c3C)ccc12`, the concentration for half-maximal inhibition (IC50) worked out at 0.58 µM.

`COC(=O)Nc1noc2cc(-c3c(C(C)O)n[nH]c3C)ccc12` (centres undefined): the half-inhibitory concentration (IC50) was found to be 1.2 µM.

On to `COC(=O)Nc1noc2cc(-c3c(-c4cc(C)ccn4)n[nH]c3C)ccc12`, for which the IC50 was 2.6 µM.

With `COCc1n[nH]c(C)c1-c1ccc2c(NC(=O)OC)noc2c1`, the IC50 worked out at 1.1 µM.

For `Cc1n[nH]c(C)c1-c1ccc2c(NC(=O)C3CC3)n[nH]c2c1`, the IC50 was determined as 0.33 µM.

For `CCOC(=O)Nc1noc2cc(-c3c(-c4ccccn4)n[nH]c3C)ccc12`, the IC50 was found to be 0.04 µM.

In the case of `COC(=O)Nc1noc2cc(-c3c(C(=O)OC)n[nH]c3C)ccc12`, the concentration for half-maximal inhibition (IC50) is 2.9 µM.

Consider `Cc1n[nH]c(C)c1-c1ccc2c(NC(=O)c3ccc(OCCN4CCCCC4)cc3)n[nH]c2c1`, for which the half-maximal inhibitory concentration (IC50) amounted to 0.26 µM.

As to `COC(=O)Nc1noc2cc(-c3c(C(C)C)n[nH]c3C)ccc12`, the IC50 amounted to 0.91 µM.

In the case of `O=C(Nc1n[nH]c2cc(-c3ccc(O)cc3)ccc12)c1ccc(OCCN2CCOCC2)cc1`, the half-maximal inhibitory concentration (IC50) is 0.13 µM.

As to `O=C1Cc2cc(-c3ccc4c(NC(=O)C5CC5)n[nH]c4c3)ccc2N1`, the half-maximal inhibitory concentration (IC50) is more than 30 µM.

Take `Cc1[nH]nc(C2CC2)c1-c1ccc2c(N)noc2c1`: the half-maximal inhibitory concentration (IC50) is 1.4 µM.

On to `O=C(Nc1n[nH]c2cc(-c3ccncc3)ccc12)C1CC1`, for which the IC50 is 7.2 µM.

Take `O=C(Nc1n[nH]c2cc(-c3ccc4[nH]cnc4c3)ccc12)C1CC1`: the concentration for half-maximal inhibition (IC50) was more than 3 µM.

For `COC(=O)Nc1noc2cc(-c3c(-c4cccc(C(C)C)n4)n[nH]c3C)ccc12`, the IC50 stood at 2.6 µM.

As to `CNC(=O)c1n[nH]c(C)c1-c1ccc2c(NC(=O)OC)noc2c1`, the 50% inhibitory concentration (IC50) came to 4.4 µM.

Turning to `Cc1noc(C)c1-c1ccc2c(NC(=O)C3CC3)n[nH]c2c1`, the half-inhibitory concentration (IC50) came out at 1 µM.

`Cc1[nH]nc(-c2ccccn2)c1-c1ccc2c(NC(=O)OCCF)noc2c1`: the IC50 amounted to 0.047 µM.

Regarding `COC(=O)Nc1noc2cc(-c3c(-c4ncccc4C)n[nH]c3C)ccc12`, the IC50 was found to be 4.8 µM.

System in a further data set: not listed separately
Nature of the data set: Metabolic stability in mouse liver microsomes assessed as […] by measuring parent compound remaining at 1 uM after 0.5 hrs by LC-MS/MS analysis. It is filed as ADME. Particulars: read-out: Stability. Background: Liver microsomes are a subcellular fraction often used to study metabolism.
As for `O=C(Nc1n[nH]c2cc(-c3ccc(O)cc3)ccc12)c1ccc(OCCN2CCOCC2)cc1`, the remaining at 0.5 h, 1 µM is 76%.

System in the next data set: not listed separately
Nature of the data set: Cmax in C57BL/6J mouse at 30 mg/kg, po by LC-MS/MS analysis. The arrangement: dose 30 mg/kg, route oral. It is filed as ADME, organism-based. Particulars: in vivo.
In the case of `O=C(Nc1n[nH]c2cc(-c3ccc(O)cc3)ccc12)c1ccc(OCCN2CCOCC2)cc1`, the peak level (Cmax) was 0.32 µg/mL.

System in another data set: not listed separately
Nature of the data set: Tmax in C57BL/6J mouse at 30 mg/kg, po by LC-MS/MS analysis. It is filed as ADME, organism-based. The settings on record: in vivo.
On to `O=C(Nc1n[nH]c2cc(-c3ccc(O)cc3)ccc12)c1ccc(OCCN2CCOCC2)cc1`, for which the Tmax worked out at 1.5 h.

System in another data set: not listed separately
As to the kind of experiment: AUC in C57BL/6J mouse at 30 mg/kg, po by LC-MS/MS analysis. It is filed as ADME, organism-based. Particulars: in vivo.
As for `O=C(Nc1n[nH]c2cc(-c3ccc(O)cc3)ccc12)c1ccc(OCCN2CCOCC2)cc1`, the AUC came to 0.89 µg·h/mL.

Usually IC50 stands for the concentration needed to halve the response being measured. Usually Cmax stands for the maximum level reached in the sampled fluid or tissue. For orientation: Tmax means the time at which the peak concentration occurs. Usually AUC stands for the area under the concentration-time curve, a measure of exposure. Lower therefore signals low exposure.

(Values after ChEMBL document CHEMBL4052759, “Discovery of DS79182026: A potent orally active hepcidin production inhibitor” (Bioorg Med Chem Lett, 2017).)
